{"source": "patent US20180008672A1", "about": "“ANTI-ACTIVIN A ANTIBODIES AND METHODS OF USE THEREOF FOR TREATING PULMONARY ARTERIAL HYPERTENSION” (Regeneron Pharmaceuticals, Inc., priority 2016, published 2018)", "key": {"[1]": {"test_system": "rat model of pulmonary hypertension induced by monocrotaline", "assay": "rat model of pulmonary hypertension induced by monocrotaline", "format": "in vivo, rat (Sprague Dawley)", "procedure": "To further evaluate the effect of anti-Activin A antibodies in pulmonary arterial hypertension, a rat model of pulmonary hypertension induced by monocrotaline was used.\nSix to seven week old Sprague Dawley rats were used. Rats were separated into treatment groups such that body weights were similar among different groups. Rats were subcutaneously administered either 40 mg/kg of monocrotaline or 5 mL/kg of saline at day 0. At 14 days post injection, saline-injected rats were orally dosed with PEG 400 (at 50:50 v/v, Affymetrix Inc., #19957) at 5 mL/kg daily for two weeks, and monocrotaline-injected rats were separated into 5 groups with a group (n=9) orally dosed with PEG 400 at 5 mL/kg daily for two weeks, another group (n=12) orally administered macintentan at 30 mg/kg daily for two weeks, and three groups that were both orally dosed with PEG 400 at 5 mL/kg daily for two weeks and subcutaneously treated with either anti-Activin A antibodies, H4H10430P (n=9), H4H10446P2 (n=11), or an isotype control antibody (n=10) at 40 mg/kg twice a week for two weeks.\nAt day 27, pulmonary artery size and right ventricular function and dimensions of the rats were assessed using a high frequency ultrasound system (Vevo 2100, VisualSonics). For the assessment, rats were anesthetized (with 1.5% isoflurane at a rate of 1.0 cc/mL of medical grade air) and their temperature was monitored with a rectal temperature probe and held at approximately 37° C. with a heated platform (Vevo 2100, Visualsonics) and a warming lamp. Both brightness-mode (B-mode) and motion-mode (M-mode) imaging were used. B-mode imaging of the rat heart in cross-section was used to determine pulmonary artery cross-sectional area (PA CSA) at the level of the pulmonary valve. […] was used to determine the pulsed wave velocity time integral (VTI), which is derived from the area under the curve of representative Doppler tracings of blood flow through the pulmonary artery. Right ventricular stroke volume (RV SV) was calculated from the product of PA CSA and VTI. Right ventricular cardiac output (RV CO) was calculated from the product of SV and heart rate (HR). M-mode imaging was used to determine right ventricular free wall (RVFW) thickness during diastole and systole. Animals were returned to their home cages before right ventricular pressure assessment.\nRight ventricular pressure was subsequently assessed for all treatment groups. Rats were anesthetized with isoflurane and were kept at approximately 37° C. using a platform (Heated Hard Pad 1, Braintree Scientific) and circulating heated water pump (T/Pump Classic, Gaymar Industries). The neck area for each rat was prepared for surgery by depilating over the right common carotid artery and right jugular vein. An incision was made and the right jugular vein was isolated with care as to not damage the carotid artery and/or the Vagus nerve. A piece of 5-0 silk suture was placed under the isolated jugular vein to allow for retraction of the vessel cranially, then a 26-guage needle was used to introduce a hole into the jugular vein. A pressure catheter (Micro-tip catheter transducer SPR-1000, Millar Instruments, Inc.) was inserted into the opening of the jugular vein and advanced past the right atrium into the right ventricle. The catheter was connected to pressure/volume instrument (MPVS-300, Millar Instruments, Inc.) that measured heart rate as well as both diastolic and systolic right ventricular pressures. These parameters were digitally acquired using a data acquisition system (PowerLab 4/35, ADlnstruments). LabChart Pro 7.0 software (ADlnstruments) was used to analyze right ventricular pressures. Readings were quantified from a 60 second interval of the pressure tracing (following a 2 minute period of recording to allow for pressure stabilization). The parameters analyzed were RV diastolic and systolic pressures, heart rate and ventricular contractile function. […]"}, "[2]": {"test_system": "long-term rat monocrotaline in vivo model", "assay": "long-term rat monocrotaline model, survival", "set-up": "species or system rat (Sprague Dawley)", "conditions": "monocrotaline 40 mg/kg SC day 0; therapy from two weeks post-monocrotaline for 5 weeks; antibodies 40 mg/kg SC 2x/wk, macitentan 30 mg/kg PO daily; n=10", "procedure": "To evaluate the survival benefit of anti-Activin A antibody in a pulmonary arterial hypertension model, a long-term rat monocrotaline in vivo model was used.\nSix-to-seven week old Sprague Dawley rats were used. Rats were separated into treatment groups such that body weights were similar among different groups. Rats were subcutaneously administered either 40 mg/kg of monocrotaline or 5 mL/kg of saline at day 0. At 14 days post-injection, saline-injected rats were subcutaneously treated with saline at 5 mL/kg, twice a week for 5 weeks, unless they died prematurely.\nThe monocrotaline-injected rats were separated into 4 groups. One group (n=10) was orally administered macitentan at 30 mg/kg daily. A second group (n=10) was subcutaneously administered saline at 5 mL/kg twice a week. A third group (n=10) was subcutaneously treated with either an isotype control antibody, H4H6334P. A fourth group (n=10) was subcutaneously treated with the anti-Activin A antibody, H4H10446P2, at 40 mg/kg twice a week. These monocrotaline-treated rats were started on therapy at two weeks post-monocrotaline and continued for 5 weeks, unless the animal died prematurely.\nAnimals were monitored twice a day for signs of morbidity or mortality. Based on literature searches, 5-8 weeks after monocrotaline injection is typically a time where morbidity and mortality are likely. […]"}, "[3]": {"conditions": "monocrotaline 40 mg/kg SC day 0, antibodies 40 mg/kg SC 2x/wk, macitentan 30 mg/kg PO daily from day 14 for two weeks, ultrasound day 27"}}, "note": "Marks after values point to notes of the source that are not given here.", "data": [{"smiles": "CCCNS(=O)(=O)Nc1ncnc(OCCOc2ncc(Br)cn2)c1-c1ccc(Br)cc1", "note": "[Macitentan]", "values": [{"measurement": "PA CSA (Ave ± SEM)", "setting": "[1]; [3]", "value": "9.458 ± 0.476** mm^2"}, {"measurement": "Right Ventricular cardiac output (Ave ± SEM)", "setting": "[1]; [3]", "value": "127.8 ± 11.7", "unit": "mL/min"}, {"measurement": "Stroke Volume (Ave ± SEM), right ventricular", "setting": "[1]; [3]", "value": "371.6 ± 27.9", "unit": "µL"}, {"measurement": "effect on right ventricular cardiac output (in words)", "setting": "[1]; monocrotaline exposed rats", "value": "partially restored cardiac output"}, {"measurement": "effect on PA CSA (in words)", "setting": "[1]; monocrotaline-injected rats, FIG. 3A", "value": "restored PA CSA to that of saline-injected rats"}, {"measurement": "effect on right ventricular stroke volume (in words)", "setting": "[1]; monocrotaline-injected rats, FIG. 3B", "value": "partially restored stroke volume"}, {"measurement": "effect on right ventricular hypertrophy, Fulton Index RV/(LV+S) (in words)", "setting": "[1]; monocrotaline-injected rats, FIG. 3C", "value": "did not lessen right ventricular hypertrophy"}, {"measurement": "effect on elevation of right ventricular pressures (in words)", "setting": "[1]; monocrotaline-injected rats, catheter-based assessment, FIG. 3D", "value": "none of the treatment groups (Macitentan or anti-Activin A groups) showed attenuation in the elevation of right ventricular pressures"}, {"measurement": "mortality (animals that died during the study)", "setting": "[2]", "value": "Forty"}]}]}
